Measurements: patent US20100120737A1, “Amorphous ciclesonide” (priority 2008, published 2010)
In brackets after ≈: the same amount, converted by molar mass.

What was measured:
Assay type in all cases: physicochemical
[1] = Hygroscopicity
[2] = Dissolution experiments (dissolution kinetics in water)
Experimental: For each timepoint (5 min, 10 min, 20 min, 35 min, 60 min and 1440 min) of the dissolution experiment, three samples each of X-ray amorphous and crystalline ciclesonide were prepared by weighing a defined amount of in each case about 15 mg into a 250 ml conical wide-necked Erlenmeyer flask and stirring (850 rpm, glass coated magnetic stir bar, having a length of 2.4 cm and a diameter of 0.59 cm) the samples at 37° C. in 100 ml water (Millipore quality, ELIX 3, Gradient A 10, pH 5.92-6.00). The moment of the addition of water was defined as t0. The tempering of the samples was performed using an air bath. After the desired stirring time, the complete samples were filtered through a 0.2 μm membrane filter (Schleicher & Schuell, RC 0.2 μm Spartan 30/A) and concentrated on a Sep-Pak cartridge (Waters Sep-Pak cartridge C18, WAT051910). The cartridge was then eluted with ethanol (gradient grade, Merck). The ciclesonide in the ethanol solution was then quantified by HPLC (LaChrom®-HPLC System Series 7000, column: Zorbax SB phenyl, eluent: water/ethanol 38%: 62% (v/v) isocratic, column temperature: 60° C., injection volume: 50 μL, UV-detection at 243 nm) against an external standard.

[3] = Saturation solubility experiments; conditions: water, 24 hours stirring after ultrasonic treatment
Experimental: Defined amounts of in each case about 14 to 25 mg of X-ray amorphous or crystalline ciclesonide were weighed into a conical Erlenmeyer flask equipped with a rubber stopper (n=3). 100 ml of water (Millipore quality. ELIX 3. Gradient A 10, pH 5.92-6.00) were added and 30 minutes of ultrasonic treatment was applied to the samples. Afterwards the samples were stirred in the dark for 24 hours at 37° C. in a water bath. After the desired stirring time, each sample was filtered through a 0.2 μm membrane filter (Schleicher & Schuell, RC 0.2 μm Spartan 30/A) and concentrated on a Sep-Pak cartridge (Waters Sep-Pak cartridge C18, WAT051910). Then the cartridge was eluted with ethanol (gradient grade, Merck). The ciclesonide in the ethanol solution was then quantified by HPLC (LaChrom®-HPLC System Series 7000, column: Zorbax SB phenyl, eluent: water/ethanol 38%: 62% (v/v) isocratic, column temperature: 60° C., injection volume: 50 μL, UV-detection at 243 nm) against an external standard.

[4] = Stability under elevated pressure (recrystallization); conditions: pressure of up to 2.500 for 5 min
Excerpt: Such a stability against pressure is particularly desirable when a pharmaceutical agent is used for preparation of solid pharmaceutical compositions such as tablets or granules.

Row | hygroscopicity [1] | concentration of dissolved ingredient after 20 minutes ([2]; 37° C., after 20 minutes) [ng/mL] | concentration of dissolved ciclesonide after 24 hours ([2]; 37° C., after 24 hours) [ng/mL] | concentration of dissolved ingredient within 5 minutes ([2]; 37° C., within 5 minutes) [ng/mL] | concentration of dissolved ingredient relative to crystalline ciclesonide after 1 hour ([2]; after 1 hour, amorphous vs crystalline) | saturation solubility ([3]; 37° C.) [µg/mL] | solubility at 1 h ([2]; pH 6, thermodynamic from solid, 37° C., after 1 hour) [µg/mL] | solubility at 24 h ([3]; 37 °C, pH 6, water, thermodynamic from solid) [µg/mL] | SMILES | recrystallization under pressure [4]
1 | not hygroscopic | 340 | 105 | 290 | about sevenfold | 0.0916 ± 0.0052 |  |  | CC(C)C(=O)OCC(=O)[C@@]12OC(C3CCCCC3)O[C@@H]1CC1[C@@H]3CCC4=CC(=O)C=C[C@]4(C)[C@H]3[C@@H](O)C[C@@]12C (stereo partly drawn) [amorphous ciclesonide, 16,17-[(Cyclohexyl-methylene)bis(oxy)]-11-hydroxy-21-(2-methyl-1-oxopropoxy)-pregna-1,4-diene-3,20-dione[11β,16α]] | did not show any signs of recrystallization
2 |  |  |  |  |  |  | ~0.05 (≈ 0.0925 µM) | ~0.091 (≈ 0.168 µM) | CC(C)C(=O)OCC(=O)[C@@]12OC(C3CCCCC3)O[C@@H]1CC1[C@@H]3CCC4=CC(=O)C=C[C@]4(C)[C@H]3[C@@H](O)C[C@@]12C (stereo partly drawn) [crystalline ciclesonide, 16,17-[(Cyclohexyl-methylene)bis(oxy)]-11-hydroxy-21-(2-methyl-1-oxopropoxy)-pregna-1,4-diene-3,20-dione[11β,16α], reference compound] | 
